# Reference: patent US20180000085A1, “USE OF PICOLINAMIDE COMPOUNDS WITH FUNGICIDAL ACTIVITY” (DOW AGROSCIENCES LLC, priority 2014, published 2018)
# Tests used:
# Zymoseptoria tritici = test: Leaf blotch of wheat (SEPTTR) disease control on wheat seedlings; format: in vivo; parameters: key to SEPTTR 1DP, HV activity at 100 ppm (% control rating) / SEPTTR 3DC, HV activity at 100 ppm (% control rating) / SEPTTR disease control, 1DP / SEPTTR disease control, 3DC / SEPTTR 1DP disease control rating, HV activity / SEPTTR 3DC disease control rating, HV activity / SEPTTR 3DC, LV activity at 125.1 g/H (% Control rating) / SEPTTR 1DP, LV activity at 125.1 g/H (% Control rating) / SEPTTR 1DP disease control rating, LV activity at 125.1 g/H / SEPTTR 3DC disease control rating, LV activity at 125.1 g/H / SEPTTR 3DC disease control rating, HV activity at 100 ppm / SEPTTR 1DP disease control rating, HV activity at 100 ppm / HV activity at 100 ppm SEPTTR 3DC (disease control rating) / HV activity at 100 ppm SEPTTR 1DP (disease control rating) / LV activity at 125.1 g/H SEPTTR 1DP (disease control rating) / LV activity at 125.1 g/H SEPTTR 3DC (disease control rating): A: > 80; B: ≤ 80; C: Not Tested; D: No Activity Observed in the Reported Assay; settings: for SEPTTR 1DP disease control rating, LV activity at 125.1 g/H / SEPTTR 1DP disease control rating, HV activity at 100 ppm: 1 day protectant; for SEPTTR 3DC disease control rating, LV activity at 125.1 g/H / SEPTTR 3DC disease control rating, HV activity at 100 ppm: 3 day curative; for SEPTTR 1DP disease control rating, HV activity at 100 ppm / SEPTTR 3DC disease control rating, HV activity at 100 ppm: high volume application
# Puccinia triticina = test: Wheat brown rust (PUCCRT) disease control on wheat seedlings; format: in vivo; parameters: key to PUCCRT 3DC, HV activity at 100 ppm (% control rating) / PUCCRT disease control, 3DC / PUCCRT 1DP disease control rating, HV activity / PUCCRT 3DC disease control rating, HV activity / PUCCRT 3DC, LV activity at 125.1 g/H (% Control rating) / PUCCRT 1DP, LV activity at 125.1 g/H (% Control rating) / PUCCRT 3DC disease control rating, LV activity at 125.1 g/H / PUCCRT 1DP disease control rating, LV activity at 125.1 g/H / PUCCRT 3DC disease control rating, HV activity at 100 ppm / PUCCRT 1DP disease control rating, HV activity at 100 ppm / HV activity at 100 ppm PUCCRT 3DC (disease control rating) / LV activity at 125.1 g/H PUCCRT 1DP (disease control rating) / LV activity at 125.1 g/H PUCCRT 3DC (disease control rating): A: > 80; B: ≤ 80; C: Not Tested; D: No Activity Observed in the Reported Assay; settings: for PUCCRT 1DP disease control rating, LV activity at 125.1 g/H / PUCCRT 1DP disease control rating, HV activity at 100 ppm: 1 day protectant; for PUCCRT 3DC disease control rating, LV activity at 125.1 g/H / PUCCRT 3DC disease control rating, HV activity at 100 ppm: 3 day curative; for PUCCRT 1DP disease control rating, HV activity at 100 ppm / PUCCRT 3DC disease control rating, HV activity at 100 ppm: high volume application
# [1] = low volume application, 125.1 g/H, 1 Day Protectant
# [2] = low volume application, 125.1 g/H, 3 Day Curative
# [3] = low volume application, 125.1 g/H
Structure (SMILES),"SEPTTR 1DP, LV activity at 125.1 g/H (% Control rating) (Zymoseptoria tritici; [1])","SEPTTR 3DC, LV activity at 125.1 g/H (% Control rating) (Zymoseptoria tritici; [2])","PUCCRT 1DP, LV activity at 125.1 g/H (% Control rating) (Puccinia triticina; [1])","PUCCRT 3DC, LV activity at 125.1 g/H (% Control rating) (Puccinia triticina; [2])","SEPTTR 1DP disease control rating, HV activity at 100 ppm (Zymoseptoria tritici)","SEPTTR 3DC disease control rating, HV activity at 100 ppm (Zymoseptoria tritici)","PUCCRT 1DP disease control rating, HV activity at 100 ppm (Puccinia triticina)","PUCCRT 3DC disease control rating, HV activity at 100 ppm (Puccinia triticina)",further results
CC[C@@H](CCC(C)C)[C@H](OCC1CC1)[C@H](C)OC(=O)[C@H](C)NC(=O)c1nccc(OC)c1OC(C)=O [Cmpd 504],B (≤ 80),B (≤ 80),A (> 80),A (> 80),–,–,–,–,–
CCC(CC)[C@@H](Oc1ccc(Cl)cc1Cl)[C@H](C)OC(=O)[C@H](C)NC(=O)c1nccc(OC)c1OC(C)=O [Cmpd 601],B (≤ 80),B (≤ 80),A (> 80),B (≤ 80),–,–,–,–,–
CCC(CC)[C@H](Oc1cc(F)cc(Cl)c1)[C@H](C)OC(=O)[C@H](C)NC(=O)c1nccc(OC)c1OCOC(C)=O [Cmpd 672],–,–,–,–,–,–,–,–,"SEPTTR 1DP disease control rating, LV activity at 125.1 g/H (Zymoseptoria tritici; [3]): A (> 80); SEPTTR 3DC disease control rating, LV activity at 125.1 g/H (Zymoseptoria tritici; [3]): B (≤ 80); PUCCRT 1DP disease control rating, LV activity at 125.1 g/H (Puccinia triticina; [3]): A (> 80); PUCCRT 3DC disease control rating, LV activity at 125.1 g/H (Puccinia triticina; [3]): B (≤ 80)"
CCC[C@@H](OCC1CC1)[C@H](C)OC(=O)[C@H](C)NC(=O)c1nccc(OC)c1OC(C)=O [Cmpd 1057],–,–,–,–,–,–,–,–,"LV activity at 125.1 g/H SEPTTR 1DP (disease control rating) (Zymoseptoria tritici; low volume application, 125.1 g/H, 1 Day Protectant, wheat leaf blotch): B (≤ 80); LV activity at 125.1 g/H SEPTTR 3DC (disease control rating) (Zymoseptoria tritici; low volume application, 125.1 g/H, 3 Day Curative, wheat leaf blotch): B (≤ 80); LV activity at 125.1 g/H PUCCRT 1DP (disease control rating) (Puccinia triticina; low volume application, 125.1 g/H, 1 Day Protectant, wheat brown rust): B (≤ 80); LV activity at 125.1 g/H PUCCRT 3DC (disease control rating) (Puccinia triticina; low volume application, 125.1 g/H, 3 Day Curative, wheat brown rust): A (> 80)"
CC[C@H](OC(=O)[C@H](C)NC(=O)c1nccc(OC)c1O)[C@H](Oc1ccccc1)C(C)C [Cmpd 815],–,–,–,–,B (≤ 80),D,A (> 80),A (> 80),–
CCC[C@@H](Oc1ccc(C)cc1Cl)[C@H](C)OC(=O)[C@H](C)NC(=O)c1nccc(OC)c1O [Cmpd 999],–,–,–,–,B (≤ 80),B (≤ 80),A (> 80),A (> 80),–
COc1ccnc(C(=O)N[C@@H](C)C(=O)O[C@@H](C)[C@H](OCC(C)C)C2CCCC2)c1OC(C)=O [Cmpd 922],–,–,–,–,–,–,–,–,"SEPTTR 1DP disease control rating, LV activity at 125.1 g/H (Zymoseptoria tritici; [3]): A (> 80); SEPTTR 3DC disease control rating, LV activity at 125.1 g/H (Zymoseptoria tritici; [3]): B (≤ 80); PUCCRT 1DP disease control rating, LV activity at 125.1 g/H (Puccinia triticina; [3]): A (> 80); PUCCRT 3DC disease control rating, LV activity at 125.1 g/H (Puccinia triticina; [3]): A (> 80)"
COc1ccnc(C(=O)NC(C)C(=O)OC(C)COc2ccccc2)c1OC(=O)C1CC1 (stereo not shown) [Cmpd 541],B (≤ 80),B (≤ 80),D,D,–,–,–,–,–
C=CC[C@@H](OCC(=C)C)[C@H](C)OC(=O)[C@H](C)NC(=O)c1nccc(OC)c1O [Cmpd 1019],–,–,–,–,B (≤ 80),A (> 80),A (> 80),A (> 80),–
CCC(CC)[C@@H](Oc1ccccc1Cl)[C@H](C)OC(=O)[C@@H](NC(=O)c1nccc(OC)c1OCOC(C)=O)C(C)C [Cmpd 652],B (≤ 80),B (≤ 80),A (> 80),B (≤ 80),–,–,–,–,–
